Assay results taken from patent publication US5001142A, “1-substituted-2-(3-amino-1-propynyl)pyrrolidine derivatives” (American Cyanamid Company, priority 1989, dated 1991).
Structures can show the parent of a compound that is named as a salt.

What was measured:
[1] = target: muscarinic cholinergic receptor; assay: [^3 H]-Cis-methyldioxolane (^3 H-CD) Binding Assay (High Affinity); conditions: rat cerebral cortex, ^3 H-CD 1.0 nM, 25° C., 120 minutes, pH 7.4, high affinity agonist conformation
[2] = target: muscarinic cholinergic receptor; assay: [^3 H] Quinuclidinyl Benzilate (^3 H-QNB) Binding Assay; conditions: rat cerebral cortex, ^3 H-QNB 0.25 nM, 25° C., 120 minutes, pH 7.4
aged monkey = conditions: aged monkeys; cited from earlier work
SDAT patients = conditions: compared to the anticholinesterase inhibitor physostigmine; cited from earlier work
presynaptic cholinergic = conditions: should disinhibit the release of endogenous acetylcholine; cited from earlier work
muscarinic sites = conditions: cited from earlier work
postsynaptic cholinergic = conditions: should mimic the effects of acetylcholine; cited from earlier work

| IC50 [1] [µM] | IC50 [2] [µM] | SMILES | further results |
| --- | --- | --- | --- |
| 3.58 | 34 | O=CN1CCC[C@@H]1C#CCN1CCCC1 [(R)-2-(3-(1-Pyrrolidinyl)-1-propynyl]-1-pyrrolidine-carboxaldehyde] |  |
| 5.24 | 65 | O=CN1CCC[C@H]1C#CCN1CCCC1 [(S)-2-[3-(1-Pyrrolidinyl)-1-propynyl]-1-pyrrolidinecarboxaldehyde] |  |
| 0.247 | 4.2 | CC(C)(C)OC(=O)N1CCC[C@H]1C#CCN1CCCC1 [(S)-2-[3-(1-Pyrrolidinyl)-1-propynyl]1-pyrrolidine-carboxylic acid, 1,1-dimethylethyl ester] |  |
| 0.78 | 8.8 | CC(=O)N1CCC[C@@H]1C#CCN1CCCC1 [(R)-1-Acetyl-2-[3-(1-pyrrolidinyl)-1-propynyl]pyrrolidine] |  |
| 0.514 | 3.1 | C(#C[C@H]1CCCN1)CN1CCCC1 [(R)-1-[3-(2-Pyrrolidinyl)-2-propynyl]pyrrolidine] |  |

Further lines, the compound ahead of its results:

| SMILES | IC50 [1] [µM] | IC50 [2] [µM] | further results |
| --- | --- | --- | --- |
| CC(=O)N1CCC[C@H]1C#CCN1CCCC1 [(S)-1-Acetyl-2-[3-(1-pyrrolidinyl)-1-propynly]-pyrrolidine, hydrochloride] |  |  | IC50 ([1]; hydrochloride): 3.26 µM; IC50 ([2]; hydrochloride): 73 µM |
| O=C(N1CCC[C@H]1C#CCN1CCCC1)C(F)(F)F [(S)-2-[3-(1-Pyrrolidinyl)-1-propynyl]1-trifluoroacetyl) pyrrolidine, hydrochloride] |  |  | IC50 ([1]; hydrochloride): 3.83 µM; IC50 ([2]; hydrochloride): 16 µM |
| CS(=O)(=O)N1CCC[C@@H]1C#CCN1CCCC1 [(R)-1-(Methylsulfonyl)-2-[3-(1-pyrrolidinyl)-1-propynyl]pyrrolidine, hydrochloride] |  |  | IC50 ([1]; hydrochloride): 2.45 µM; IC50 ([2]; hydrochloride): 25 µM |
| COC(=O)C1=CCCN(C)C1 [arecoline] |  |  | improvement in performance (aged monkey): significant improvement in performance; improvement in SDAT patients compared to physostigmine (SDAT patients): more-consistent improvement |
| CS(=O)(=O)N1CCC[C@H]1C#CCN1CCCC1 [(S)-1-(Methylsulfonyl)-2-[3-(1-pyrrolidinyl)-1propynyl]pyrrolidine, hydrochloride] |  |  | IC50 ([1]; hydrochloride): 8.08 µM; IC50 ([2]; hydrochloride): 47 µM |
| CC(C)(C)OC(=O)N1CCC[C@@H]1C#CCN1CCCC1 [(R)-2-[3-(1-Pyrrolidinyl)-1-propynyl]-1-pyrrolidine-carboxylic acid, 1,1-dimethylethyl ester] | 0.029 | 6.5 |  |
| C(#C[C@H]1CCCN1)CN1CCCC1 [(R)-1-[3-(2-Pyrrolidinyl)-2-propynyl] pyrrolidine, dihydrochloride] |  |  | IC50 ([1]; dihydrochloride): 0.742 µM; IC50 ([2]; dihydrochloride): 2.7 µM |
| CC(=O)N(C)C(C)C#CCN1CCCC1 (stereo not drawn) [BM-5, N-methyl-N-(1-methyl-4-pyrrolidino-2-butynyl)acetamide] |  |  | presynaptic cholinergic action (presynaptic cholinergic): presynaptic cholinergic antagonist; antagonist/agonist action at muscarinic sites (muscarinic sites): antagonist at some muscarinic sites while being an agonist at most others; postsynaptic cholinergic action (postsynaptic cholinergic): postsynaptic partial cholinergic agonist |
| O=C(N1CCC[C@@H]1C#CCN1CCCC1)C(F)(F)F [(R)-2-[3-(1-Pyrrolidinyl)-1-propynyl]-1-(trifluoroacetyl)pyrrolidine] | 2.58 | 40 |  |
| CS(=O)(=O)N1CCC[C@@H]1C#CCN1CCCC1 [(R)-1-(Methylsulfonyl)-2-[3-(1-pyrrolidinyl)-1-propynyl]pyrrolidine] | 0.973 | 23 |  |
| O=C(N1CCC[C@@H]1C#CCN1CCCC1)C(F)(F)F [(R)-2-[3-(1-Pyrrolidinyl)-1-propynyl]-1-(trifluoroacetyl)pyrrolidine, dihydrochloride] |  |  | IC50 ([1]; dihydrochloride): 8.57 µM; IC50 ([2]; dihydrochloride): 43 µM |
| CC(=O)N1CCC[C@H]1C#CCN1CCCC1 [(S)-1-Acetyl-2-[3-(1-pyrrolidinyl)-1-propynyl]pyrrolidine] | 2.71 | 76 |  |
| CS(=O)(=O)N1CCC[C@H]1C#CCN1CCCC1 [(S)-1-(Methylsulfonyl)-2-[3-(1-pyrrolidinyl]-1-propynyl]pyrrolidine] | 6.78 | 43 |  |
| O=C1CCCN1CC#CCN1CCCC1 [oxotremorine] |  |  | improvement in performance (aged monkey): significant improvement in performance |
| O=CN1CCC[C@H]1C#CCN1CCCC1 [(S)-2-[3-(1-Pyrrolidinyl)-1-propynyl]1-pyrrolidine-carboxaldehyde, hydrochloride] |  |  | IC50 ([1]; hydrochloride): 11.1 µM; IC50 ([2]; hydrochloride): 88 µM |
| O=C(N1CCC[C@H]1C#CCN1CCCC1)C(F)(F)F [(S)-2-[3-(1-Pyrrolidinyl)-1-propynyl]-1-(trifluoroacetyl)pyrrolidine] | 5.47 | 18 |  |
